The term IC50 denotes the point on the concentration scale where inhibition reaches its midpoint.

Data set [1] has as its system FaDu cells. Briefly: Cellular uptake inhibition assay. It counts as cell-based. The following applies: n = 6. As to the method: To reveal the uptake mechanism of OCTL14 on FaDu cells, a cellular uptake inhibition assay was performed using bromsulphthalein (BSP) (Sigma-Aldrich, St. Louis, MO, USA) and corticosteroid (Sigma-Aldrich). First, the 15,000 cells were plated per well on a 24-well plate. After incubation for 48 h at 37 °C, cells were washed twice with 0.5 ml of HBSS. Then, the cells were pretreated with 250 μM BSP for 5 min or 25 μM corticosteroid for 5 min, before they were incubated with 2 μM OCTL14 for 15 min at 37 °C. To rule out the possible diffusion of OCTL14 across the plasma membrane, FaDu cells were incubated with 2 μM OCTL14 at 4 °C for 15 min. Serum-free medium was added to the control group without any inhibitors. After washing, images were acquired by Cytation 5 using a Cy5 filter. ImageJ software version 1.52p was used to measure the fluorescent intensity of FaDu cells at each condition.

Data set [2] deals with FaDu cells. Briefly: Cell viability assay (CCK-8). The format is cell-based. The following applies: FaDu cells. As for the experimental part:
(§1) To evaluate the toxicity of OCTL14 and cRGD-ZW800-PEG on FaDu cells, cell viability was measured by using the Cell Counting Kit-8 (CCK-8, Dojindo Molecular Technologies Inc., Kumamoto, Japan). FaDu cells were seeded at a density of 400 cells/well in a 96-well plate, and then they were then treated with either 2, 5, 10, and 20 μM OCTL14 or 1.6, 3.1, 6.3, 12.5, 25, 50, and 100 μM cRGD-ZW800-PEG in growth medium for 24 h at 37 °C. Then, the dye and old medium were removed from all wells, and new medium were added and incubated for 24 h before 10 μl of CCK-8 solution was added to each well. After 3 h of incubation for OCTL14 and 4 h of incubation for cRGD-ZW800-PEG, absorbance was measured at 450 nm using a microplate reader. The cell survival rate for each dye was calculated using the following equation: Survival rate (%) = (Asample − Ab)/(Ac − Ab) × 100 (Asample, absorbance of sample; Ab, absorbance of blank well; Ac, absorbance of negative control). Experiments were repeated at least 3 times.

Data set [3] concerns FaDu tongue cancer xenograft. As to the kind of experiment: Intraoperative fluorescence imaging of orthotopic and ectopic FaDu tumors (TBR, histology). The format is in vivo, mice. The following applies: for Tumor-to-background ratio (TBR): FaDu tongue cancer xenograft, intravenous, within 4 h post-injection, OCTL14 cancerous tissue, cRGD-ZW800-PEG surrounding TME; for Localisation by histopathologic analysis: orthotopic FaDu tongue tumor, 4 h after intravenous injection, frozen sections, NIR and H&E. As to the method:
To evaluate the targetability of OCTL14 and cRGD-ZW800-PEG on the orthotopic xenograft model of tongue cancer, 0.5 × 10^6 of FaDu cells in a 30-μl mixture of saline and Matrigel (1:2 ratio) were injected subepithelially into the tip of the tongue using an insulin syringe. When the size of the tongue tumor reached 2 mm, dual fluorescence imaging was performed by injecting cRGD-ZW800-PEG and OCTL14 intravenously 4 h prior to imaging. For the ectopic xenograft model of HNSCC, 0.5 × 10^6 of FaDu cells in a 50-μl mixture of saline and Matrigel (1:2 ratio) were injected subcutaneously on the lower back of the mouse. When the size of the ectopic tumor reached 3 mm, in vivo evaluation of the targetability of the 2 NIR fluorophores was performed. All the animal surgeries were performed under anesthesia with isoflurane.
The real-time fluorescence intensity of OCTL14 and cRGD-ZW800-PEG at the orthotopic and ectopic tumors was compared with the surrounding nontumor region (background signal) to evaluate the TBR. After intraoperative imaging, the fluorescence intensity of the tumor tissue was acquired using ImageJ software and divided by the fluorescence intensity of the surrounding tissue to calculate TBR for both OCTL14 and cRGD-ZW800-PEG. Quantitative time-course assessment of both orthotopic and ectopic tongue cancer was performed for both OCTL14 and cRGD-ZW800-PEG at 1, 4, 6, and 24 h post-intravenous injection. At least 3 head and neck tumor models were evaluated for the quantitative analysis of TBR.
Tumor and TME targetability of OCTL14 and cRGD-ZW800-PEG were confirmed by histology analysis on the orthotopic HNSCC xenograft model. The tumor-bearing tongue was excised from the mouse after in vivo imaging of the tumors at 4 h after intravenous injection of the 2 fluorophores, and embedded in Tissue-Tek optimal cutting temperature compound (Sakura Finetek, Torrance, CA, USA). Frozen sections were acquired and placed on slides with a cut thickness of 10 μm using a cryostat (Leica, Germany). Fluorescence images were taken for both OCTL14 and cRGD-ZW800-PEG using Cy5 filter and Cy7 filter on Cytation 5, respectively. After dual fluorescence imaging, the tissue sections were stained with hematoxylin and eosin (H&E), and bright-field images of the orthotopic tongue cancer were acquired using Cytation 5.

Data set [4] can be described thus: Biodistribution and clearance, K-FLARE NIR imaging. Conditions: tumor-bearing nude mice; 100 nmol intravenous; 4 h post-injection; SBR relative to muscle.
The nature of data set [5]: Serum protein binding assay, rapid equilibrium dialysis. Conditions: rapid equilibrium dialysis device; 5 μM; 10% fetal bovine serum; 8 h incubation; absorbance read-out of sample and buffer chamber (Cytation 5).
The test system of data set [6] is FaDu cells. Briefly: Cell binding assay. The format is cell-based. The following applies: OCTL14 20 min, cRGD-ZW800-PEG 30 min, Cy5 / Cy7 fluorescence imaging, n = 6. As for the experimental part:
To evaluate the cellular uptake of OCTL14 and cRGD-ZW800-PEG in HNSCC cells, a cell binding assay was done using FaDu cells (HTB-43), purchased from the American Type Culture Collection (Manassas, VA, USA). The cells were first cultured in complete Dulbecco’s modified Eagle’s medium (cDMEM) supplemented with 4.5 g/l glucose, L-glutamine and sodium pyruvate, 10% FBS, and 1% penicillin/streptomycin (Lonza, DE17-602E) at 37 °C in a 5% CO2 humidified chamber. Then, cells were seeded in a 24-well plate at a density of 20,000 cells/well and incubated for 24 h. After discarding old medium and washing twice with Hanks’ balanced salt solution (HBSS), the cells were incubated with OCTL14 for 20 min and with cRGD-ZW800-PEG for 30 min, respectively. The wells were washed 3 times with HBSS before fluorescence images were captured using Cy5 and Cy7 filters on Cytation 5 for OCTL14 and cRGD-ZW800-PEG, respectively.

Data set [7] can be described thus: Photostability under NIR irradiation. The following applies: under 630-nm NIR light; 25 μM in 10% FBS; up to 3 h.
Data set [8] in a line: Cell viability assay (CCK-8). It counts as cell-based. As for the experimental part: as §1
Assay in data set [9]: not given
This is another data set of the same source.

Assay in data set [10]: not given
This is another data set of the same source.

Where only a bound is given, the exact number is not on record here.

On to `Br.C[N+]1=C(/C=C2\C(=O)C(/C=C3/N(CCC[N+](C)(C)C)c4ccc(F)cc4C3(C)C)=C2[O-])C(C)(C)c2ccccc21.[I-]` [OCTL14], for which the “Uptake in cold inhibition test” value in the data set on FaDu cells [1] (2 μM OCTL14 at 4 °C) was “Negative uptake”. Further, the “Effect of corticosteroid (OCT inhibitor) on uptake of OCTL14” value in the data set with FaDu cells [1] (25 μM corticosteroid pretreatment 5 min, 2 μM OCTL14, 15 min, 37 °C, compared to control) was “significantly reduced the uptake”. The “Effect of BSP (OATP inhibitor) on uptake of OCTL14” value in the data set with FaDu cells [1] (250 μM BSP pretreatment 5 min, 2 μM OCTL14, 15 min, 37 °C) was “little impact”. For the same compound, the IC50 in the data set on FaDu cells [2] (24 h treatment at 37 °C, then 24 h in new medium, absorbance 450 nm, n = 5, read-out: IC50 (cytotoxicity, CCK-8)) is 42.1 µM. Moreover, the “Concentration up to which little toxicity was shown” value in the data set with FaDu cells [2] (CCK-8 assay, 24 h treatment) is not above 20 µM. Further, in data set [3], the “Tumor-to-background ratio (TBR)” value was more than 2.0 and the “Localisation by histopathologic analysis” value is “effectively imaged the tumor cell itself”. Besides, the “Biodistribution (SBR of resected organs)” value in [4] is “high SBR in the kidney, gallbladder, and intestine”. Moreover, in [5], the “Plasma protein binding, 8 h (%Bound)” value was 4.46%. The “Uptake in FaDu cells (cell binding assay)” value with FaDu cells [6] is on record as “significantly high target affinity”. The “Photostability: remaining initial absorbance” value in [7] is reported as “over 90%”.
Compound `CC1(C)C(=CC=C2CCCC(C=CC3=[N+](CCC[N+](C)(C)C)c4ccc(S(=O)(=O)O)cc4C3(C)C)=C2SCCOCCOCCC(=O)NCCCC[C@@H]2NC(=O)[C@@H](Cc3ccc(O)cc3)NC(=O)[C@H](CC(=O)O)NC(=O)CNC(=O)[C@H](CCCNC(=N)N)NC2=O)N(CCC[N+](C)(C)C)c2ccc(S(=O)(=O)O)cc21` [cRGD-ZW800-PEG] returned a fluorescence maximum of 809 nm. Moreover, in [8], it took 45.8 µM to reach half-maximal inhibition (IC50). In data set [3], the “Tumor-to-background ratio (TBR)” value is reported as more than 1.5 and the “Localisation by histopathologic analysis” value is listed as “peritumoral tissue was the primary target”. The compound further registered an absorbance maximum in data set [9] of 784 nm. This compound gave a quantum yield (QY) in data set [10] of 8.52%. Further, in the data set with FaDu cells [6], the “Uptake in FaDu cells (cell binding assay)” value is “limited uptake”.
